Source: US12448366B2, “Solid forms of pralsetinib” (Rigel Pharmaceuticals, Inc., priority 2020, dated 2025)
Values after ≈ are worked out from the molar mass of the structure shown.

What was measured:
Format in all cases: physicochemical
[1] = Dynamic vapor sorption (DVS)
Experimental: Dynamic Vapor Sorption (DVS) was done using a DVS Intrinsic 1. The sample is loaded into a sample pan and suspended from a microbalance. A typical sample mass for DVS measurement is 25 mg. Nitrogen gas bubbled through distilled water provides the desired relative humidity. A typical measurement comprises the steps: • 1—Equilibrate at 50% RH • 2—50% to 2%. (50%, 40%, 30%, 20%, 10% and 2%) • a. Hold minimum of 5 mins and maximum of 60 minutes at each humidity. The pass criteria is less than 0.002% change • 3—2% to 95% (2%, 10%, 20%, 30%, 40%, 50%, 60%, 70%, 80%, 90%, 95%) • a. Hold minimum of 5 mins and maximum of 60 minutes at each humidity. The pass criteria is less than 0.002% change • 4—95% to 2% (95%, 80%, 70%, 60%, 50%, 40%, 30%, 20%, 10%, 2%) • a. Hold minimum of 5 mins and maximum of 60 minutes at each humidity. The pass criteria is less than 0.002% change • 5—2% to 50% (2%, 10%, 20%, 30%, 40%, 50%) • a. Hold minimum of 5 mins and maximum of 60 minutes at each humidity. The pass criteria is less than 0.002% change High Pressure Liquid Chromatography (HPLC)
Dynamic Vapor Sorption (DVS) was performed using a DVS Intrinsic 1. The samples (12-31 mg) was loaded into a sample pan, suspended from a microbalance and exposed to a humidified stream of nitrogen gas. The sample was held for a minimum of 5 min at each level and only progressed to the next humidity level if there was <0.002% change in weight between measurements (interval: 60 seconds) or 240 min had elapsed. The following program was used: • 1—Equilibration at 50% RH • 2—50% to 2%. (50%, 40%, 30%, 20%, 10% and 2%) • 3—2% to 95% (2%, 10%, 20%, 30%, 40%, 50%, 60%, 70%, 80%, 90%, 95%) • 4—95% to 2% (95%, 80%, 70%, 60%, 50%, 40%, 30%, 20%, 10%, 2%) • 5—2% to 50% (2%, 10%, 20%, 30%, 40%, 50%) High Performance Liquid Chromatography (HPLC)

[2] = One week (7 days) slurry stability by XRPD and HPLC; conditions: XRPD and HPLC, listed as solid form 11-A
[3] = Salt screening: XRPD of wet cake, after drying under vacuum at 50° C., after exposure to 97% relative humidity; conditions: XRPD; for stability of salt solid form to humidification: 97% (>95%) relative humidity; for stability of salt solid form to drying: vacuum at 50° C.
[4] = Solubility in water and simulated fluids (fasted/fed state simulated intestinal fluid, fasted state simulated gastric fluid); conditions: water, room temperature; read-out: water solubility at room temperature
[5] = DSC and TGA/DSC thermal analysis; conditions: listed as Glutarate 11-A
Experimental: Differential scanning calorimetry was done using a Mettler Toledo DSC3+. The desired amount of sample is weighed directly in a hermetic aluminum pan with pin-hole. A typical sample mass for is 3-5 mg. A typical temperature range is 30° C. to 300° C. at a heating rate of 10° C. per minute (total time of 27 minutes). Typical parameters for DSC are listed below.
Thermogravimetric analysis and differential scanning calorimetry was done using a Mettler Toledo TGA/DSC3+. The desired amount of sample is weighed directly in a hermetic aluminum pan with pin-hole. A typical sample mass for the measurement is 5-10 mg. A typical temperature range is 30° C. to 300° C. at a heating rate of 10° C. per minute (total time of 27 minutes). Protective and purge gasses are nitrogen (20-30 mL/min and 50-100 mL/min). Typical parameters for DSC/TGA are listed below.
Differential scanning calorimetry was performed using a Mettler Toledo DSC3+. The sample (3-5 mg) was weighed directly in a 40 μL hermetic aluminum pan with pin-hole and analyzed according to the parameters below:
Thermogravimetric analysis and differential scanning calorimetry were performed on the same sample simultaneously using a Mettler Toledo TGA/DSC3+. […] The desired amount of sample (5-10 mg) was weighed directly in a hermetic aluminum pan with pin-hole and analyzed according to the parameters below: […]

[6] = Humidity exposure, 75% relative humidity at 40° C. for one week, XRPD; conditions: XRPD pattern after exposure; listed as Glutarate 11-A

Compound: CO[C@]1(C(=O)N[C@@H](C)c2ccc(-n3cc(F)cn3)nc2)CC[C@H](c2nc(C)cc(Nc3cc(C)[nH]n3)n2)CC1 [Solid Form 11-A, pralsetinib]
- mass change by DVS ([1]; between 2% and 90% relative humidity, listed as solid form 11-A): 0.48 wt. %
- mass change by DVS ([1]; between 15% and 75% relative humidity, listed as solid form 11-A): 0.27 wt. %
- DVS Mass Change ([1]; glutarate and succinate: between 2% and 90% relative humidity, listed as Glutarate 11-A): 0.48 wt. %
- reversibility of the DVS mass change ([1]; listed as solid form 11-A): appears to be reversible
- stability slurrying 7 days in EtOAc ([2]; EtOAc): converted to a solid form designated as solid form 11-B
- stability slurrying 7 days in EtOH ([2]; EtOH): converted to a solid form designated as solid form 11-B
- stability of salt solid form to humidification ([3]; listed as Pattern 11-A): stable
- stability of salt solid form to humidification ([3]; listed as glutarate 11-A): stable
- stability of salt solid form to humidification ([3]; listed as solid form 11-A): stable
- stability of salt solid form to drying ([3]; listed as Pattern 11-A): stable
- stability of salt solid form to drying ([3]; listed as glutarate 11-A): stable
- stability of salt solid form to drying ([3]; listed as solid form 11-A): stable
- solubility [4]: 240 µg/mL (≈ 450 µM)
- Endotherm Onset [5]: 177.8 °C
- Stability 40° C./75% RH [6]: Stable
